{"source": "patent US9895344B2", "about": "“Treating various disorders with 7,8-dihydroxyflavone and derivatives thereof” (EMORY UNIVERSITY, priority 2008, dated 2018)", "key": {"TrkA [1]": {"target": "T1, TrkA (Homo sapiens, UniProt P04629)", "T1 construct": "expressed in transfected cells; host or cells: HEK293", "T1 sequence (P04629 33-796, species assumed)": "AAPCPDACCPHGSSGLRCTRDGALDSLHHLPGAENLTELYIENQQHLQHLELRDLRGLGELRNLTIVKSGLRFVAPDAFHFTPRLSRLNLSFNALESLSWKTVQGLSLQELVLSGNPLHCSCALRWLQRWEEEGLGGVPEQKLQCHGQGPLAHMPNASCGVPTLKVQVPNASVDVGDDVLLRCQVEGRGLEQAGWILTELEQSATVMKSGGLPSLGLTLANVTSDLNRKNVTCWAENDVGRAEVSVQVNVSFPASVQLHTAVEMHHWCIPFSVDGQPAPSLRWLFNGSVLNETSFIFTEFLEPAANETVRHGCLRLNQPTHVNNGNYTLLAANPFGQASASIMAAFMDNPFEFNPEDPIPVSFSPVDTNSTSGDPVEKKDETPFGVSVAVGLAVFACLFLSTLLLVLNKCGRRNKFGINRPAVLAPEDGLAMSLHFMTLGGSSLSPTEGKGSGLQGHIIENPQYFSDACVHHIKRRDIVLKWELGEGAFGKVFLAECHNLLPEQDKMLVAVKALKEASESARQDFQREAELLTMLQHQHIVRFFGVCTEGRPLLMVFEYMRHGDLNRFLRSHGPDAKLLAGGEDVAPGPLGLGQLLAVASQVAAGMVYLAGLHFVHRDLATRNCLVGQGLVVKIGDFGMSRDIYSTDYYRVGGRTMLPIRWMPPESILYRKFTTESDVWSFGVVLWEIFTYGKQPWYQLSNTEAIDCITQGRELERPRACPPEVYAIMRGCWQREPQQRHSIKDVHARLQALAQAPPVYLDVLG", "test": "Tyrosine phosphorylation of Trk receptors in transfected HEK293 cells: TrkA", "type": "cell-based", "conditions": "FIG. 15", "description": "To determine if 7,8-dihydroxyflavone promoted tyrosine phosphorylation of the other Trk receptors, HEK293 cells were transfected with various Trk receptors, followed by treatment with 7,8-dihydroxyflavone."}, "caspase-3 activation [2]": {"test_system": "caspase-3 activation", "test": "Active caspase-3 ELISA in glutamate-treated cortical neurons", "type": "cell-based, rat", "conditions": "50 nM or higher concentrations, 50 μM glutamate for 16 hours, FIG. 29", "protocol": "To quantitatively compare the anti-apoptotic activity of 7,8-DHF and 4′-DMA-7,8-DHF, cortical neurons were prepared from E16 rat embryonic cells and pretreated with various indicated concentrations of 4′-DMA-7,8-DHF and 7,8-DHF for 30 min, followed by 50 μM glutamate for 16 hours. The cell lysates were quantitatively analyzed with an active caspse-3 ELISA."}, "TrkA [3]": {"target": "T2, TrkA (Mus musculus, UniProt Q3UFB7)", "T2 sequence (Q3UFB7 34-799)": "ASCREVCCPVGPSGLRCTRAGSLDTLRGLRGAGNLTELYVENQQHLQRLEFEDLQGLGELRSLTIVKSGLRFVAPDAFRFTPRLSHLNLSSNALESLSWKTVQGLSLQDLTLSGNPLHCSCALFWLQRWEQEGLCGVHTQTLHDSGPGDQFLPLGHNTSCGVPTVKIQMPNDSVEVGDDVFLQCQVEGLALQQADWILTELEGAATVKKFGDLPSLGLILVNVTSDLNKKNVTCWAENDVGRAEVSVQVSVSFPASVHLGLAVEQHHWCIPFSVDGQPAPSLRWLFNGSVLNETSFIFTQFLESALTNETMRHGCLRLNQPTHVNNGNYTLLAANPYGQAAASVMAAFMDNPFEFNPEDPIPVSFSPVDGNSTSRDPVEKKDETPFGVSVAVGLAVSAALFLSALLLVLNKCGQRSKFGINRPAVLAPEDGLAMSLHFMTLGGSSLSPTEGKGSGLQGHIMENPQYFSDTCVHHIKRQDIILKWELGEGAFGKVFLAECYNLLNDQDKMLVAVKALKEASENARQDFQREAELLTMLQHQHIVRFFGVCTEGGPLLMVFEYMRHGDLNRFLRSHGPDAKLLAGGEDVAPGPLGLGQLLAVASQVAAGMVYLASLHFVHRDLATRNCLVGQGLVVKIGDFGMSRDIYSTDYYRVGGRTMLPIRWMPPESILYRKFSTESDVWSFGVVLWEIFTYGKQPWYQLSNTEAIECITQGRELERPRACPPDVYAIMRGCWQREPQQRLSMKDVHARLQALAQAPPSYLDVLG", "test": "Trk activation in wild-type and TrkC knockout cortical neurons: TrkA", "type": "cell-based, mice", "set-up": "from tissue; host or cells: mouse brain", "conditions": "FIG. 22", "protocol": "(§1) To further assess whether 7,8-dihydroxyflavone blocks neuronal apoptosis in a TrkB dependent manner, cortical neurons were prepared from homozygous pups of TrkC+/−mice, which were mated to the same genotype. […] Glutamate weakly stimulated both TrkA and TrkB faint phosphorylation regardless of TrkC genotype (FIG. 22, rows 1 and 3). The spontaneous caspase-3 activation in TrkC−/− neurons was suppressed by 7,8-dihydroxyflavone (FIG. 22, row 5)."}, "T48 cells": {"test_system": "T48 cells", "test": "Fluorescent apoptotic assay (Staurosporine, MR(DEVD)2) in TrkB stably transfected T48 cells", "type": "cell-based, murine", "description": "Create and test reporter cell lines. In order to identify small molecules that mimic BDNF and activate TrkB, TrkB stably transfected murine cell lines were created. The T48 and T62 cell lines were created by transfecting basal forebrain SN56 cells, which express negligible TrkB, with a TrkB expression construct. […] To test resistance to apoptosis, SN56 cells and the T48 cell line were either untreated or treated with BDNF, and then subjected to an apoptotic assay. Briefly, the cells were treated with 0.75 μM Staurosporine for 9 hours, and 1 hour before the termination of the experiment, the cells were treated with 10 μM MR (DEVD)2. The cells were then fixed with 4% paraformaldehyde for 15 minutes, washed with phosphate buffered saline (PBS), and incubated with Hoechst 33342 for 10 minutes. Cover slides were washed with PBS, mounted, and the cells were examined using a fluorescent microscope to see which cells turned red upon caspase cleavage.\nCell-based screen. To screen a large number of chemicals, a cell-based apoptic assay was developed using a cell permeable fluorescent dye, MR (DEVD)2, which turns red upon caspase cleavage in apoptotic cells. SN56 and T48 cells were plated at 10,000 cells per well in multiple 96-well plates and exposed to 2000 biologically active compounds from the Spectrum Collection Library for 30 minutes at a concentration of 10 μM in DMSO. Following exposure to the compounds, the cells were subjected to the developed fluorescent apoptotic assay described above (method schematically shown in FIG. 2).\nIn the initial screen, 5 of the 66 positive compounds were flavone derivatives or similar compounds. […] To compare the apoptosis inhibitory activity, the flavone derivatives were preincubated with SN56 and T48 cells, and subsequently were subjected to the fluorescent apoptotic assay as described above. […] Additionally, the effective concentration at which 50% (EC50) of the cells are protected from apoptosis was determined for 7,8-dihydroxyflavone, Cianidanol, Pinocembrin and Diosmetin."}, "TrkA [4]": {"target": "T2, TrkA", "test": "Immunoblotting of brain lysates from forced swim test mice: TrkA", "type": "in vivo", "set-up": "from tissue; host or cells: mouse brain", "conditions": "5 mg/kg, 21 days oral, anti-p-TrkA 794, FIG. 35", "protocol": "To explore whether 4′-DMA-7,8-DHF and 7,8-DHF have any antidepressant effect, a forced swim test (6 minutes, immobility recorded in the last 4 minutes) was conducted after chronic treatment of male C57BL/6J mice (8 mice/group) for 21 days via oral injection."}, "Caspase-3 activation [5]": {"test_system": "Caspase-3 activation", "test": "Caspase-3 activation in wild-type and TrkC-/- cortical neurons", "type": "cell-based, mice", "conditions": "FIG. 22 row 5", "protocol": "as §1"}, "KA-provoked apoptosis": {"test_system": "KA-provoked apoptosis", "test": "KA-provoked neuronal cell death in TrkB F616A knockin mice, intraperitoneal (caspase-3 immunoblot)", "type": "in vivo", "protocol": "To determine if 1NMPP1 would make neurons treated with 7,8-dihydroxyflavone vulnerable to KA-provoked neuronal cell death, TrkF616A knockin mice were fed with 1NMPP1 (25 mM) in drinking water one day prior to pharmacological reagent treatment. The next day, the mice were intraperitoneally injected with KA (25 mg/kg), or 7,8-dihydroxyflavone (5 mg/kg) 4 hours prior to KA injection. The control mice were injected with either KA or 7,8-dihydroxyflavone alone, or the mice were administered 7,8-dihydroxyflavone 4 hours before KA. In 4 days, the mice were sacrificed and the brains were homogenated and ultracentrifuged. The supernatant was employed for SDS-PAGE and immunoblotting analysis."}, "GST-TrkB ECD": {"target": "GST-TrkB ECD (Rattus norvegicus, UniProt Q63604)", "sequence (Q63604 32-429 limits assumed)": "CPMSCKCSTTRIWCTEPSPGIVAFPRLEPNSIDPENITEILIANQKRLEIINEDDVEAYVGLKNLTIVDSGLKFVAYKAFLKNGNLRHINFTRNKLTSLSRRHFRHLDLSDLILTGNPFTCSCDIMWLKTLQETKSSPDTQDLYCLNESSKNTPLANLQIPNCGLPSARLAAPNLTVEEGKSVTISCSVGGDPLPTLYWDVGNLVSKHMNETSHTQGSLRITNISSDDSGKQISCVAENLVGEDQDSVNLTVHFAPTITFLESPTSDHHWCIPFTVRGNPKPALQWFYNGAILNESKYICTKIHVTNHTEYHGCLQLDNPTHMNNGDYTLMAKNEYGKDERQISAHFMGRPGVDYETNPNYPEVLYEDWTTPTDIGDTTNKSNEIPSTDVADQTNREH", "test": "In vitro binding assay with immobilized GST-TrkB ECD on glutathione beads, UV-spectrometry of eluate", "conditions": "500 nM, 4° C., 30 minutes, FIG. 17", "protocol": "To further explore the association of 7,8-dihydroxyflavone and the TrkB receptor, an in vitro binding assay was performed. Increasing volumes of GST-TrkB ECD and GST-TrkB ICD were bound to glutathione beads to a total of 250 uL, and 500 nM 7,8-dihydroxyflavone in 250 μl (20% DMSO/80% PBS) was incubated with the beads in the column at 4° C. for 30 minutes. After the incubation, the elute fractions were collected and the concentration of eluted 7,8-dihydroxyflavone was analyzed by UV-spectrometry at a wavelength of 410 nm."}, "[6]": {"test_system": "ECD and ICD of TrkA receptor", "test": "In vitro binding assay: TrkA ECD and ICD"}, "Akt": {"test_system": "Akt", "test": "Western analysis of Akt phosphorylation in hippocampal neurons", "type": "cell-based", "protocol": "To further examine whether 7,8-dihydroxyflavone can stimulate TrkB-mediated downstream signaling cascades, Western analysis was performed.\nTo probe the time course of 7,8-dihydroxyflavone triggered TrkB activation, hippocampal neurons were treated with 7,8-dihydroxyflavone at 500 nM and phosphorylation of Erk and Akt was determined over time by Western analysis. […] Stimulation of Erk and Akt by 7,8-dihydroxyflavone also occurred in a dose dependent manner."}}, "data": [{"smiles": "O=c1cc(-c2ccccc2)oc2c(O)c(O)ccc12", "note": "[7,8-dihydroxyflavone]", "values": [{"measurement": "tyrosine phosphorylation of TrkA receptor", "setting": "TrkA [1]", "result": "not"}, {"measurement": "Glutamate-provoked caspase-3 activation", "setting": "caspase-3 activation [2]", "result": "substantially blocked"}, {"measurement": "TrkA activation in wild-type and TrkC knockout neurons", "setting": "TrkA [3]", "result": "not TrkA activation"}, {"measurement": "EC50", "setting": "T48 cells; Mus musculus, read-out: effective concentration at which 50% (EC50) of the cells are protected from apoptosis", "result": 35, "unit": "nM"}, {"measurement": "suppression of apoptosis in T48 cell line", "setting": "T48 cells; Staurosporine-induced apoptosis, FIG. 1B and FIG. 4", "result": "strongly suppressed apoptosis"}, {"measurement": "TrkA activation in mouse brain", "setting": "TrkA [4]", "result": "not TrkA activation"}, {"measurement": "spontaneous caspase-3 activation in TrkC-/- neurons", "setting": "Caspase-3 activation [5]", "result": "suppressed"}, {"measurement": "glutamate-triggered caspase-3 activation", "setting": "Caspase-3 activation [5]; regardless of TrkC genotype", "result": "significantly diminished"}, {"measurement": "KA-provoked apoptosis", "setting": "KA-provoked apoptosis; 5 mg/kg intraperitoneally 4 hours prior to KA (25 mg/kg)", "result": "suppressed KA-provoked apoptosis"}, {"measurement": "protective effect against KA after 1NMPP1 pretreatment", "setting": "KA-provoked apoptosis; 1NMPP1 in drinking water one day prior", "result": "abolished"}, {"measurement": "apoptosis in TrkB F616A mice, treatment alone without KA", "setting": "KA-provoked apoptosis; FIG. 24", "result": "no effect on apoptosis"}, {"measurement": "concentration of eluted compound as GST-TrkB ECD volumes increased", "setting": "GST-TrkB ECD", "result": "decreased"}, {"measurement": "binding to TrkA ECD or ICD", "setting": "[6]", "result": "Neither the ECD nor ICD of TrkA receptor was capable of binding"}, {"measurement": "time at which Akt phosphorylation peaked", "setting": "Akt; 500 nM", "result": 30, "unit": "min"}, {"measurement": "time at which Akt phosphorylation was seen", "setting": "Akt; 500 nM", "result": 10, "unit": "min"}, {"measurement": "time by which Akt phosphorylation faded", "setting": "Akt; 500 nM", "result": 180, "unit": "min"}, {"measurement": "Akt activation (Western)", "setting": "Akt; FIG. 9", "result": "activated"}, {"measurement": "concentration at which Akt activation was observed", "setting": "Akt; treatment for 30 minutes", "result": 100, "unit": "nm"}, {"measurement": "survival of ischemic insult and treatment", "setting": "infarct volume; 5 mg/kg intraperitoneally", "result": "All animals included in the study survived"}, {"measurement": "infarct volumes", "setting": "infarct volume; 5 mg/kg intraperitoneally 5 minutes prior to reperfusion, TTC 24 hours after MCAO, FIG. 20", "result": "reduced infarct volumes"}]}]}
